Data set [1] is described as follows: Metabolic stability in mouse liver microsomes assessed as half life preincubated for 5 mins followed by NADPH addition and measured upto 60 mins by LC-MS/MS analysis. The settings on record: time < 65 min. It counts as ADME, Microsome. (Liver microsomes are vesicles of endoplasmic reticulum, rich in cytochrome P450 enzymes.)
The nature of data set [2]: Metabolic stability in human liver microsomes assessed as half life preincubated for 5 mins followed by NADPH addition and measured upto 60 mins by LC-MS/MS analysis. It is filed as ADME, Microsome. The settings on record: time < 65 min.
Data set [3] can be described thus: AUC (0 to t) in male C57BL/6 mouse at 30 mg/kg, ip measured upto 1440 mins by LC-MS/MS analysis. It is filed as ADME, organism-based. Conditions: in vivo.
Data set [4] can be described thus: MRT (0 to t) in male C57BL/6 mouse at 30 mg/kg, ip measured upto 1440 mins by LC-MS/MS analysis. It is filed as ADME, organism-based. Conditions: in vivo.
A short description of data set [5]: Tmax in male C57BL/6 mouse at 30 mg/kg, ip measured upto 1440 mins by LC-MS/MS analysis. Conditions: in vivo. It counts as ADME, organism-based.
Data set [6] is described as follows: Half life in male C57BL/6 mouse at 30 mg/kg, ip measured upto 1440 mins by LC-MS/MS analysis. It counts as ADME, organism-based. The settings on record: in vivo.
Data set [7] can be described thus: Cmax in male C57BL/6 mouse at 30 mg/kg, ip measured upto 1440 mins by LC-MS/MS analysis. It is filed as ADME, organism-based. Conditions: in vivo.
The nature of data set [8]: Apparent oral clearance in male C57BL/6 mouse at 30 mg/kg, ip measured upto 1440 mins by LC-MS/MS analysis. It is filed as ADME, organism-based. Conditions: in vivo, read-out: CLz/F (converted).
Data set [9] in a line: Drug distribution in C57BL/6 mouse colon at 30 mg/kg, ip measured after 0.5 hrs by LC-MS/MS analysis. It counts as ADME, organism-based. Conditions: read-out: Drug uptake.
Data set [10] in a line: Drug distribution in C57BL/6 mouse colon at 30 mg/kg, ip measured after 2 hrs by LC-MS/MS analysis. It is filed as ADME, organism-based. Conditions: read-out: Drug uptake.
Data set [11] in a line: Drug distribution in C57BL/6 mouse colon at 30 mg/kg, ip measured after 8 hrs by LC-MS/MS analysis. It is filed as ADME, organism-based. The settings on record: read-out: Drug uptake.
The nature of data set [12]: Drug distribution in C57BL/6 mouse colon at 30 mg/kg, ip measured after 24 hrs by LC-MS/MS analysis. It counts as ADME, organism-based. The settings on record: read-out: Drug uptake.
Data set [13] can be described thus: Drug distribution in C57BL/6 mouse plasma at 30 mg/kg, ip measured after 0.5 hrs by LC-MS/MS analysis. It counts as ADME, organism-based.
The nature of data set [14]: Drug distribution in C57BL/6 mouse plasma at 30 mg/kg, ip measured after 2 hrs by LC-MS/MS analysis. It is filed as ADME, organism-based.

What is called half-life is the time needed for the level to fall by half in the phase considered. In the case of `C=C1C(=O)O[C@@H]2C[C@@]3(C)CC[C@@H](OC(=O)/C=C/C(=O)c4ccccc4)C(=C)[C@@H]3C[C@H]12`, the half-life in [1] came out at 19.2 min; in data set [2] it was 10.4 min.
With `C=C1C(=O)O[C@@H]2C[C@@]3(C)CC[C@@H](OC(=O)c4c(Cl)ccnc4Cl)C(=C)[C@@H]3C[C@H]12`, the half-life in [1] worked out at 47.1 min; in data set [2] it was 118 min.
As to `C=C1C(=O)O[C@@H]2C[C@@]3(C)CC[C@@H](OC(=O)/C=C/C(=O)c4ccc(C(F)(F)F)cc4)C(=C)[C@@H]3C[C@H]12`, the half-life in data set [1] worked out at 27.2 min; in [2], 20.6 min.
For orientation: AUC(0-t) means the area under the concentration-time curve up to a stated or last time point. A higher AUC(0-t) goes with more exposure. What is called MRT last is the average time that molecules of a dose stay in the body. By Tmax is commonly meant the time from dosing to the highest level. Broadly, the Cmax is the peak of the concentration-time curve. As for `C=C1C(=O)O[C@@H]2C[C@@]3(C)CCCC(=C)[C@@H]3C[C@H]12` [ISOALANTOLACTONE], the figures for the half-life in [1], in [2] and in [6] were 9.1 min, 4.47 min and 127 min, respectively. In addition, the AUC(0-t) at 24 h in data set [3] was determined as 230 ng·h/mL. For the same compound, the MRT last at 24 h in data set [4] came to 110 min. Besides, the Tmax in data set [5] amounted to 13.2 min. For the same compound, the concentration in [7] peaked (Cmax) at 159 ng/mL. Further, in data set [8], the CL/F is 2020 mL/min/kg. Moreover, the concentration at 0.5 h is 3320 ng/g in data set [9] and 27.4 ng/mL in data set [13]. The results for the concentration at 2 h in [10] and in data set [14] were 293 ng/g and 7.71 ng/mL, respectively. In addition, the concentration at 8 h in [11] worked out at 3120 ng/g. The concentration at 24 h in data set [12] was determined as 26.9 ng/g.
In the case of `C=C1C(=O)O[C@@H]2C[C@@]3(C)CC[C@@H](OC(=O)c4cc(Cl)cnc4Cl)C(=C)[C@@H]3C[C@H]12`, the values for the half-life in [1] and in data set [2] were 12.6 min and 95.7 min, respectively.
Taken in the same sequence, the figures for `C=C1C(=O)O[C@@H]2C[C@@]3(C)CC[C@@H](OC(=O)/C=C/C(=O)c4ccc(F)cc4)C(=C)[C@@H]3C[C@H]12` were 44.1 min and 31.1 min.

Source of the values: ChEMBL document CHEMBL5543172, “Novel Isoalantolactone-Based Derivatives as Potent NLRP3 Inflammasome Inhibitors: Design, Synthesis, and Biological Characterization” (J Med Chem, 2024).
